Columns and labels:
hP2X7 = target: T1, hP2X7 (Homo sapiens, UniProt Q99572); assay: Whole-cell patch-clamp electrophysiology in HEK-hP2X7 cells; type: cell-based
T1 sequence (Q99572 1-595): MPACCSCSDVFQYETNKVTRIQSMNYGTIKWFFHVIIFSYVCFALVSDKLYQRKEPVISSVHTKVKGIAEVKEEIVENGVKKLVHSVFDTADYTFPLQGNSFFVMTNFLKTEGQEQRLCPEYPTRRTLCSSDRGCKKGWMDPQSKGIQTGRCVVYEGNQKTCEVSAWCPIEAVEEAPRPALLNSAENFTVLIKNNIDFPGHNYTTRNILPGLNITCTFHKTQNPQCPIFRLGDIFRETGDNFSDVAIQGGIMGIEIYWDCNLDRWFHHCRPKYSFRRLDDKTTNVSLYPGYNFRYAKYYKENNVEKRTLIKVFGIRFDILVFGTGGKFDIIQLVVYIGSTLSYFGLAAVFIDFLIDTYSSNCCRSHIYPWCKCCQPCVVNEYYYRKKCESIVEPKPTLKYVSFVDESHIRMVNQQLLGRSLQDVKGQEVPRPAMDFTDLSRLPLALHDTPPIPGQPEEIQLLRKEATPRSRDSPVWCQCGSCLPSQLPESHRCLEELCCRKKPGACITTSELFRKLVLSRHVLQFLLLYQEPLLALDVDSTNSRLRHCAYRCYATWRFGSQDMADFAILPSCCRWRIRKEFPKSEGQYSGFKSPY
Description: Stably expressing HEK-hP2X7 cells were plated onto 13-mm glass coverslips 24 h prior to use. Membrane currents were recorded in the whole-cell patch-clamp configuration using an EPC10 amplifier (HEKA Elektronik) and borosilicate glass electrodes (TF-150 World Precision Instruments), resistance […] when filled with standard internal solution (145 mM NaCl, 10 mM HEPES, 10 mM EGTA, pH 7.3). Cells were voltage-clamped at − 60 mV, and dialysis of intracellular contents was performed for 1 min prior to experimental procedures. Cells were continuously perfused by gravity feed with standard divalent buffer solution (145 mM NaCl, 5 mM KCl, 2 mM CaCl2, 1 mM MgCl2, 13 mM glucose, 10 mM HEPES, pH 7.3) prior to seal formation, and low divalent buffer solution was used for agonist and PAM application. Agonists were applied using a computer-controlled fast-flow system (RSC-160; Bio-Logic Scientific Instruments) with the perfusion capillaries placed in close proximity to the cell under investigation.
(§1) Fig. 6 Dioscin enhances P2X7-dependent pore formation and potentiates channel opening. A Dioscorea nipponica (organic) plant extract (30 µg/mL) increased ATP-dependent YO-PRO-1 iodide uptake. AZ10606120 (10 µM, grey bars) was added to block hP2X7. B YO-PRO-1 uptake following a co-stimulation of HEK-hP2X7 cells with 200 µM ATP ± the named compounds in the presence or absence of AZ10606120. YO-PRO-1 uptake was quantified between 50 and 300 s (n = 5). C Whole-cell patch-clamp recordings were performed at room temperature. Cells were voltage-clamped at − 60 mV, and responses to a 5-s stimulation of ATP (100 µM) followed by a 5-s stimulation of ATP (100 µM) + dioscin/diosgenin (10 µM) were measured from HEK-hP2X7 cells. Representative traces are shown. D Summary of normalised current amplitudes represented as a fold change compared to ATP responses in the absence of dioscin/diosgenin (n = 10–18 cells). E Concentration response to ATP in the presence of dioscin (10 µM, green) or vehicle (DMSO, black) using YO-PRO-1 uptake assay in HEK-hP2X7 and F HEK-293 cells. […]

HEK293 cells = assay: Propidium iodide staining of HEK293 cells (membrane permeabilisation); type: cell-based, human
Description: Fig. 6 Dioscin enhances P2X7-dependent pore formation and potentiates channel opening. A Dioscorea nipponica (organic) plant extract (30 µg/mL) increased ATP-dependent YO-PRO-1 iodide uptake. AZ10606120 (10 µM, grey bars) was added to block hP2X7. B YO-PRO-1 uptake following a co-stimulation of HEK-hP2X7 cells with 200 µM ATP ± the named compounds in the presence or absence of AZ10606120. YO-PRO-1 uptake was quantified between 50 and 300 s (n = 5). C Whole-cell patch-clamp recordings were performed at room temperature. Cells were voltage-clamped at − 60 mV, and responses to a 5-s stimulation of ATP (100 µM) followed by a 5-s stimulation of ATP (100 µM) + dioscin/diosgenin (10 µM) were measured from HEK-hP2X7 cells. Representative traces are shown. D Summary of normalised current amplitudes represented as a fold change compared to ATP responses in the absence of dioscin/diosgenin (n = 10–18 cells). E Concentration response to ATP in the presence of dioscin (10 µM, green) or vehicle (DMSO, black) using YO-PRO-1 uptake assay in HEK-hP2X7 and F HEK-293 cells. […] H HEK-293 cells were treated with dioscin or CK (10 µM) for 10 min and stained with propidium iodide to reveal permeabilised cells. Images taken with EVOS microscope

[1] = test system: non-transfected HEK-293 cells; assay: YO-PRO-1 dye uptake in non-transfected HEK-293 cells; type: cell-based, human; details: 10 µM, in the presence of ATP
Description: HEK-hP2X7 or HEK-hP2X4 cells were plated at 2.5 × 10^4 cells per well (100 µL volume) the day before experiments into poly-D-lysine (Merck Millipore) coated 96-well plates (NUNC, Fisher Scientific #167-008). The membrane impermeant dye YO-PRO-1 iodide (Life Technologies, Fisher Scientific) was used at a final concentration of 2 µM in low divalent buffer (145 mM NaCl, 5 mM KCl, 0.2 mM CaCl2, 13 mM glucose, 10 mM HEPES, pH 7.3, osm 300–310). Media were removed from the plate, and 90 µL of YO-PRO-1 buffer was added per well. Plates were warmed to 37 °C for 5 min before recording. Data was acquired on a Flexstation 3 plate reader (Molecular Devices) using excitation wavelength 490 nm, emission wavelength 520 nm, and six reads per well (PMT medium). Compounds or plant extracts at 10X final concentration were automatically injected at 30 s, and then, ATP was automatically injected at 90 s from a 96-well V-bottomed drug plate (Greiner). This enabled cells to be pre-treated with compounds/plant extracts for 60 s before the agonist was injected. […]
Fig. 6 Dioscin enhances P2X7-dependent pore formation and potentiates channel opening. […] YO-PRO-1 uptake was quantified between 50 and 300 s (n = 5). […] Cells were voltage-clamped at − 60 mV, and responses to a 5-s stimulation of ATP (100 µM) followed by a 5-s stimulation of ATP (100 µM) + dioscin/diosgenin (10 µM) were measured from HEK-hP2X7 cells. […]

HEK-293 cells = assay: Cell viability assay (AlamarBlue) in non-transfected HEK-293 cells; type: cell-based, human; details: 10 µM, 24 h
Description: Cells were plated at 2 × 10^4 cells/well in Nunc 96-well plates (Fisher Scientific #167-008) 24 h prior to stimulation with ATP 500 µM or 3 mM in combination with identified positive or negative crude plant extracts, respectively, or with purified compounds (10 µM) for 24 h. Following incubation, resazurin (0.1 mg/mL in PBS, Sigma-Aldrich) was added to cells for 2 h at 37 °C and fluorescence was measured on a Flexstation 3 plate reader (excitation 570 nm; emission 600 nm).
as §1, with “cells).” for “cells). E Concentration response to ATP in the presence of dioscin (10 µM, green) or vehicle (DMSO, black) using YO-PRO-1 uptake assay in HEK-hP2X7 and F HEK-293 cells.”

P2X7 = target: T2, P2X7 (Homo sapiens, UniProt Q99572); assay: ATP-induced YO-PRO-1 dye uptake in HEK-hP2X7 cells; type: cell-based
T2 construct: expressed in transfected cells
T2 sequence (Q99572 1-595): T1 sequence (Q99572 1-595)
Description: HEK-hP2X7 or HEK-hP2X4 cells were plated at 2.5 × 10^4 cells per well (100 µL volume) the day before experiments into poly-D-lysine (Merck Millipore) coated 96-well plates (NUNC, Fisher Scientific #167-008). The membrane impermeant dye YO-PRO-1 iodide (Life Technologies, Fisher Scientific) was used at a final concentration of 2 µM in low divalent buffer (145 mM NaCl, 5 mM KCl, 0.2 mM CaCl2, 13 mM glucose, 10 mM HEPES, pH 7.3, osm 300–310). Media were removed from the plate, and 90 µL of YO-PRO-1 buffer was added per well. Plates were warmed to 37 °C for 5 min before recording. Data was acquired on a Flexstation 3 plate reader (Molecular Devices) using excitation wavelength 490 nm, emission wavelength 520 nm, and six reads per well (PMT medium). […] […] Pipette height was set to 80 µL and the rate of injection was 4.
YO-PRO-1 dye uptake assay data is plotted as a percentage of control where control responses are measured in the absence of plant extract. Cell viability data is plotted as a percentage of control or background-corrected fluorescence data. Concentration–response graphs were plotted using GraphPad Prism v6 with a non-linear regression fit (variable slope). IC50 values were generated from collated datasets from a minimum of three independent experiments. Statistical differences were determined by one-way ANOVA statistical tests performed using GraphPad Prism v6 with Dunnett’s multiple comparison post hoc test. Significance was taken as P ≤ 0.05.
We acquired a natural product library (Set IV) containing 419 compounds from NCI DTP and tested these on P2X7 responses using a YO-PRO-1 dye uptake in HEK293 cells stably expressing human P2X7 (HEK-hP2X7). […] This allowed us to assess for any immediate effect of the injected compound, and secondly, it allowed for any potential negative modulators to be pre-incubated with P2X7.

[2] = Cytotoxicity of purified glycoside (data not shown); type: cell-based

Structure (SMILES)	Potentiation of hP2X7 ion channel opening (hP2X7; 10 µM with ATP 100 µM, 5-s application, −60 mV)	Ion channel opening by compound alone (hP2X7; short 5-s application)	Application time after which membrane permeabilisation was observed (HEK293 cells) [min]	Propidium iodide staining (HEK293 cells; 10 µM, within 10 min of addition)	YO-PRO-1 dye uptake in non-transfected cells [1]	Cell death in non-transfected HEK-293 cells (HEK-293 cells)	Sensitivity of the potentiated ATP response to P2X7 antagonist AZ10606120 (P2X7; AZ10606120 10 µM)	Effect on YO-PRO-1 dye uptake with 200 µM ATP (P2X7; co-stimulation with 200 µM ATP)	Effect on ATP concentration–response curve (P2X7; compound 10 µM)	Effect on P2X7 responses (P2X7; purified glycosides/aglycone from potentiating extracts)	Cytotoxicity [2]
C[C@@H]1CC[C@@]2(OC1)O[C@H]1C[C@H]3[C@@H]4CC=C5C[C@@H](O[C@@H]6O[C@H](CO)[C@@H](O[C@@H]7O[C@@H](C)[C@H](O)[C@@H](O)[C@H]7O)[C@H](O)[C@H]6O[C@@H]6O[C@@H](C)[C@H](O)[C@@H](O)[C@H]6O)CC[C@]5(C)[C@H]4CC[C@]3(C)[C@H]1[C@@H]2C [Dioscin, dioscin]	could potentiate hP2X7 ion channel opening	not inducing ion channel opening itself	> 10	induce propidium iodide staining	increase YO-PRO-1 dye uptake in non-transfected HEK-293 cells in the presence of ATP	induce cell death	could be reduced with AZ10606120	able to enhance YO-PRO-1 dye uptake	increase in the maximum response with no leftward shift	could effectively potentiate P2X7 responses	–
CC1(C)CC[C@]2(C(=O)O)CC[C@]3(C)C(=CC[C@@H]4[C@@]5(C)CC[C@H](O[C@@H]6O[C@H](C(=O)O)[C@@H](O)[C@H](O[C@@H]7OC[C@@H](O)[C@H](O)[C@H]7O)[C@H]6O)C(C)(C)[C@@H]5CC[C@]43C)[C@@H]2C1 [Momordin Ic, momordin Ic]	–	–	–	–	–	–	–	–	–	–	high level of cytotoxicity
